Drawing on US20150051206A1, “COMPOUNDS AND COMPOSITIONS AS C-KIT KINASE INHIBITORS” (IRM LLC, priority 2011, published 2015), this text covers IC50 for 32 compounds.

For the first experiment, the target named is T1, c-kit (Homo sapiens, UniProt P10721).
T1 construct: human Mo7e cells which endogenously express c-kit; endogenous in cells; host or cells: human Mo7e cells (promegakaryocytic leukemia line), stimulated with human recombinant SCF
T1 sequence (P10721 26-976): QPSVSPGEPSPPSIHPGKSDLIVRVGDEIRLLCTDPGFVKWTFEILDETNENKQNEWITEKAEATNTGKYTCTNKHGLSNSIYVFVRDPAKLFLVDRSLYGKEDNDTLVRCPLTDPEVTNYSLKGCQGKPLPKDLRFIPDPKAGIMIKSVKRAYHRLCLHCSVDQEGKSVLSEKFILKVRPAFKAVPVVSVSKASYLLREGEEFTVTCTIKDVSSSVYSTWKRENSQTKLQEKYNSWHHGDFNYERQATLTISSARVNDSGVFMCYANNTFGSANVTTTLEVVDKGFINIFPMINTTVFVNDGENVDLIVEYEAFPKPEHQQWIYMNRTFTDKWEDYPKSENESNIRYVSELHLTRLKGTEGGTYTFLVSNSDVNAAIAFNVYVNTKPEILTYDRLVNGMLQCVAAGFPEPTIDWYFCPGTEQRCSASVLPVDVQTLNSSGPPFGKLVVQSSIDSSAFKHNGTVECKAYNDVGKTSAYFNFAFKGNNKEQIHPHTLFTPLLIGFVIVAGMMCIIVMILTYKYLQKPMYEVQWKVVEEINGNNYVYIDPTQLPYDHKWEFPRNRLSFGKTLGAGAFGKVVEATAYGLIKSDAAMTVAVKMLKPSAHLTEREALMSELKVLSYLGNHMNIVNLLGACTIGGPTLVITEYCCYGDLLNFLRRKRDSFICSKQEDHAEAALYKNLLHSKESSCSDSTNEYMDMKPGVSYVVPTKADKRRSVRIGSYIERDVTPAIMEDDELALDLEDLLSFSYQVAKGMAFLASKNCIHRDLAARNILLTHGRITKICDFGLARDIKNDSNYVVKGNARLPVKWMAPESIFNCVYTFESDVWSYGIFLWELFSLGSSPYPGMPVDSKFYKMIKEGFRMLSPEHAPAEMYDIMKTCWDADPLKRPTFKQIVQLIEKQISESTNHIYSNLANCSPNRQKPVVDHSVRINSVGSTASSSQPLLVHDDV
The experiment can be described thus: Mo7e cell proliferation assay (SCF dependent proliferation). The class given is cell-based. Conditions: Table 1; Mo7e cells stimulated with human recombinant SCF, 48 hours; 1% FBS. As to the method: Compounds of Formula (I) and Formula (II) provided herein were assayed to measure their capacity to inhibit c-kit and PDGFR kinases using the appropriate assay described below: c-Kit inhibition was evaluated using the Mo7e cell proliferation assay, and PDGFR inhibition was evaluated using the Rat A10 cell proliferation assay and the Human TG/HA-VSMC cell proliferation assay.
The compounds of Table 1 and Table 2 were tested for inhibition of SCF dependent proliferation using human Mo7e cells which endogenously express c-kit in a 384 well format. […] After 48 hours of incubation at 37° C., cell viability was measured by adding 25 uL of CellTiter Glo (Promega) to the cells and the luminescence was measured by a CLIPR CCD camera (Molecular Devices).
The IC50 value is given as that concentration of the test compound in question that provoke a response halfway between the baseline and maximum responses.
Take `Cc1ccc(-c2nc(Nc3ccccc3)no2)cc1NC(=O)c1cnc2ccccn12` [F1, N-(2-methyl-5-(3-(phenylamino)-1,2,4-oxadiazol-5-yl)phenyl)imidazo[1,2-a]pyridine-3-carboxamide]: the IC50 (commonly the midpoint of a concentration-inhibition curve) came out at 0.051 µM.

As to `Cc1ccc(-c2nc(-c3ccccc3)no2)cc1NC(=O)c1cnc2ccccn12` [F2, N-[2-methyl-5-(3-phenyl-1,2,4-oxadiazol-5-yl)phenyl]imidazo[1,2-a]pyridine-3-carboxamide], the IC50 was 0.016 µM.

Regarding `Cc1ccc(-c2nc(-c3cccc(OC(F)(F)F)c3)no2)cc1NC(=O)c1cnc2ccccn12` [F6, N-(2-methyl-5-{3-[3-(trifluoromethoxy)phenyl]-1,2,4-oxadiazol-5-yl}phenyl)imidazo[1,2-a]pyridine-3-carboxamide], the IC50 was found to be 0.089 µM.

In the case of `Cc1ccc(-c2nc(-c3cccc(C(F)(F)F)c3)no2)cc1NC(=O)c1cnc2ccccn12` [F7, N-(2-methyl-5-{3-[3-(trifluoromethyl)phenyl]-1,2,4-oxadiazol-5-yl}phenyl)imidazo[1,2-a]pyridine-3-carboxamide], the IC50 came out at 0.069 µM.

With `Cc1ccc(-c2nc(Cc3ccccc3F)no2)cc1NC(=O)c1cnc2ccccn12` [F9, N-(5-{3-[(2-fluorophenyl)methyl]-1,2,4-oxadiazol-5-yl}-2-methylphenyl)imidazo[1,2-a]pyridine-3-carboxamide], the IC50 was determined as 0.009 µM.

For `Cc1ccnc(-c2noc(-c3ccc(C)c(NC(=O)c4cnc5ccccn45)c3)n2)c1` [F10, N-{2-methyl-5-[3-(4-methylpyridin-2-yl)-1,2,4-oxadiazol-5-yl]phenyl}imidazo[1,2-a]pyridine-3-carboxamide], the IC50 came out at 0.024 µM.

As to `Cc1ccc(-c2noc(-c3ccccn3)n2)cc1NC(=O)c1cnc2ccccn12` [F11, N-(2-methyl-5-(5-(pyridin-2-yl)-1,2,4-oxadiazol-3-yl)phenyl)imidazo[1,2-a]pyridine-3-carboxamide], the IC50 is 0.075 µM.

For the compound `Cc1ccc(Nc2noc(-c3ccnc(N4CCOCC4)c3)n2)cc1NC(=O)c1cnc2ccccn12` [F12, N-[2-methyl-5-({5-[2-(morpholin-4-yl)pyridin-4-yl]-1,2,4-oxadiazol-3-yl}amino)phenyl]imidazo[1,2-a]pyridine-3-carboxamide], the IC50 worked out at 0.04 µM.

As to `Cc1ccc(Nc2noc(-c3cccc(N4CCN(C)CC4)c3)n2)cc1NC(=O)c1cnc2ccccn12` [F13, N-[2-methyl-5-({5-[3-(4-methylpiperazin-1-yl)phenyl]-1,2,4-oxadiazol-3-yl}amino)phenyl]imidazo[1,2-a]pyridine-3-carboxamide], the IC50 is 0.071 µM.

Turning to `Cc1ccc(Nc2noc(-c3cccc(N4CCOCC4)c3)n2)cc1NC(=O)c1cnc2ccccn12` [F14, N-[2-methyl-5-({5-[3-(morpholin-4-yl)phenyl]-1,2,4-oxadiazol-3-yl}amino)phenyl]imidazo[1,2-a]pyridine-3-carboxamide], the IC50 is 0.029 µM.

Turning to `Cc1ccc(Nc2noc(-c3cscn3)n2)cc1NC(=O)c1cnc2ccccn12` [F15, N-(2-methyl-5-{[5-(1,3-thiazol-4-yl)-1,2,4-oxadiazol-3-yl]amino}phenyl)imidazo[1,2-a]pyridine-3-carboxamide], the IC50 came out at 0.006 µM.

With `Cc1ccc(Nc2noc(-c3nccn3C)n2)cc1NC(=O)c1cnc2ccccn12` [F16, N-(2-methyl-5-{[5-(1-methyl-1H-imidazol-2-yl)-1,2,4-oxadiazol-3-yl]amino}phenyl)imidazo[1,2-a]pyridine-3-carboxamide], the IC50 turned out to be 0.027 µM.

Take `Cc1ccc(-c2nc(Nc3ccc(C)c(NC(=O)c4cnc5ccccn45)c3)no2)cn1` [F17, N-(2-methyl-5-{[5-(6-methylpyridin-3-yl)-1,2,4-oxadiazol-3-yl]amino}phenyl)imidazo[1,2-a]pyridine-3-carboxamide]: the IC50 amounted to 0.002 µM.

`Cc1ccc(Nc2noc(-c3cnccn3)n2)cc1NC(=O)c1cnc2ccccn12` [F18, N-(2-methyl-5-{[5-(pyrazin-2-yl)-1,2,4-oxadiazol-3-yl]amino}phenyl)imidazo[1,2-a]pyridine-3-carboxamide]: the IC50 was found to be 0.009 µM.

Turning to `Cc1ccc(Nc2noc(-c3ncccn3)n2)cc1NC(=O)c1cnc2ccccn12` [F19, N-(2-methyl-5-{[5-(pyrimidin-2-yl)-1,2,4-oxadiazol-3-yl]amino}phenyl)imidazo[1,2-a]pyridine-3-carboxamide], the IC50 was found to be 0.082 µM.

On to `Cc1ccc(Nc2noc(-c3ccccc3)n2)cc1NC(=O)c1cnc2ccccn12` [F20, N-{2-methyl-5-[(5-phenyl-1,2,4-oxadiazol-3-yl)amino]phenyl}imidazo[1,2-a]pyridine-3-carboxamide], for which the half-maximal inhibitory concentration (IC50) was determined as 0.01 µM.

For `Cc1ccc(Nc2noc(-c3ccccn3)n2)cc1NC(=O)c1cnc2ccccn12` [F21, N-(2-methyl-5-{[5-(pyridin-2-yl)-1,2,4-oxadiazol-3-yl]amino}phenyl)imidazo[1,2-a]pyridine-3-carboxamide], the IC50 was 0.008 µM.

In the case of `Cc1nc(-c2nc(-c3ccc(C)c(NC(=O)c4cnc5ccccn45)c3)no2)c(C(F)(F)F)o1` [F22, N-(2-methyl-5-{5-[2-methyl-5-(trifluoromethyl)-1,3-oxazol-4-yl]-1,2,4-oxadiazol-3-yl}phenyl)imidazo[1,2-a]pyridine-3-carboxamide], the 50% inhibitory concentration (IC50) stood at 0.032 µM.

Turning to `Cc1nc(C(F)(F)F)c(-c2nc(-c3ccc(C)c(NC(=O)c4cnc5ccccn45)c3)no2)s1` [F23, N-(2-methyl-5-{5-[2-methyl-4-(trifluoromethyl)-1,3-thiazol-5-yl]-1,2,4-oxadiazol-3-yl}phenyl)imidazo[1,2-a]pyridine-3-carboxamide], the IC50 was 0.061 µM.

Staying with this experiment, now noted: Table 1; Mo7e cells stimulated with human recombinant SCF, 48 hours; 20% FBS (values marked *).
For `Cc1ccc(-c2nc(Cc3ccccc3)no2)cc1NC(=O)c1cnc2ccccn12` [F3, N-[5-(3-benzyl-1,2,4-oxadiazol-5-yl)-2-methylphenyl]imidazo[1,2-a]pyridine-3-carboxamide], the IC50 came to 0.065 µM.

In the case of `Cc1ccc(-c2nc(-c3cnccc3C(F)(F)F)no2)cc1NC(=O)c1cnc2ccccn12` [F4, N-(2-methyl-5-{3-[4-(trifluoromethyl)pyridin-3-yl]-1,2,4-oxadiazol-5-yl}phenyl)imidazo[1,2-a]pyridine-3-carboxamide], the IC50 worked out at 0.023 µM.

Take `Cc1ccc(-c2nc(-c3ccc4c(c3)CCO4)no2)cc1NC(=O)c1cnc2ccccn12` [F5, N-{5-[3-(2,3-dihydro-1-benzofuran-5-yl)-1,2,4-oxadiazol-5-yl]-2-methylphenyl}imidazo[1,2-a]pyridine-3-carboxamide]: the IC50 is 0.073 µM.

`CCOc1cccc(-c2noc(-c3ccc(C)c(NC(=O)c4cnc5ccccn45)c3)n2)c1` [F8, N-{5-[3-(3-ethoxyphenyl)-1,2,4-oxadiazol-5-yl]-2-methylphenyl}imidazo[1,2-a]pyridine-3-carboxamide]: the IC50 is 0.066 µM.

Still in this experiment, the particulars now being: Table 2; Mo7e cells stimulated with human recombinant SCF, 48 hours; 1% FBS.
Turning to `Cc1ccc(-c2nc(-c3ccccn3)no2)cc1NC(=O)c1cnc2ccccn12` [F24, N-(2-methyl-5-(3-(pyridin-2-yl)-1,2,4-oxadiazol-5-yl)phenyl)imidazo[1,2-a]pyridine-3-carboxamide], the 50% inhibitory concentration (IC50) was determined as 0.137 µM.

On to `Cc1cccc(-c2noc(-c3ccc(C)c(NC(=O)c4cnc5ccccn45)c3)n2)n1` [F28, N-(2-methyl-5-(3-(6-methylpyridin-2-yl)-1,2,4-oxadiazol-5-yl)phenyl)imidazo[1,2-a]pyridine-3-carboxamide], for which the IC50 was 0.252 µM.

As to `Cc1ccc(-c2nc(-c3ccc(C(F)(F)F)cc3)no2)cc1NC(=O)c1cnc2ccccn12` [F31, N-(2-methyl-5-{3-[4-(trifluoromethyl)phenyl]-1,2,4-oxadiazol-5-yl}phenyl)imidazo[1,2-a]pyridine-3-carboxamide], the IC50 was 1.04 µM.

Staying with this experiment, now noted: Table 2; Mo7e cells stimulated with human recombinant SCF, 48 hours; 20% FBS instead of 1% FBS (values marked *).
For `Cc1ccc(-c2nc(-c3cnccn3)no2)cc1NC(=O)c1cnc2ccccn12` [F25, N-{2-methyl-5-[3-(pyrazin-2-yl)-1,2,4-oxadiazol-5-yl]phenyl}imidazo[1,2-a]pyridine-3-carboxamide], the IC50 is 0.424 µM.

For the compound `Cc1ccc(-c2nc(-c3c(Cl)cccc3Cl)no2)cc1NC(=O)c1cnc2ccccn12` [F26, N-{5-[3-(2,6-dichlorophenyl)-1,2,4-oxadiazol-5-yl]-2-methylphenyl}imidazo[1,2-a]pyridine-3-carboxamide], the IC50 came to 0.845 µM.

With `Cc1ccc(-c2nc(-c3ccc(Cl)cc3)no2)cc1NC(=O)c1cnc2ccccn12` [F27, N-{5-[3-(4-chlorophenyl)-1,2,4-oxadiazol-5-yl]-2-methylphenyl}imidazo[1,2-a]pyridine-3-carboxamide], the IC50 stood at 0.274 µM.

In the case of `Cc1ccc(-c2nc(-c3ncccc3F)no2)cc1NC(=O)c1cnc2ccccn12` [F29, N-{5-[3-(3-fluoropyridin-2-yl)-1,2,4-oxadiazol-5-yl]-2-methylphenyl}imidazo[1,2-a]pyridine-3-carboxamide], the IC50 was 0.205 µM.

In the case of `Cc1ccc(-c2nc(-c3ccc(C(F)(F)F)cn3)no2)cc1NC(=O)c1cnc2ccccn12` [F30, N-(2-methyl-5-{3-[5-(trifluoromethyl)pyridin-2-yl]-1,2,4-oxadiazol-5-yl}phenyl)imidazo[1,2-a]pyridine-3-carboxamide], the IC50 was determined as 0.359 µM.

As for `Cc1ccc(-c2nc(COc3ccccc3)no2)cc1NC(=O)c1cnc2ccccn12` [F32, N-{2-methyl-5-[3-(phenoxymethyl)-1,2,4-oxadiazol-5-yl]phenyl}imidazo[1,2-a]pyridine-3-carboxamide], the IC50 was determined as 0.249 µM.
